The target of experiment [1] is Serine/threonine-protein kinase MARK1 (Homo sapiens) (UniProt Q9P0L2). The experiment is described as follows: Selectivity interaction (Ambit KINOMEscan and KiNATiv profiling in Jurkat cells) EUB0000090b MARK1. It counts as cell-based. To be noted: at 1 µM.
Experiment [2] addresses Tyrosine-protein kinase HCK (Homo sapiens) (UniProt P08631). To be noted: at 10 µM.
Another experiment deals with Histamine H1 receptor (Homo sapiens, UniProt P35367). The experiment is described as follows: Selectivity interaction (GPCR panel (PDSP screen)) EUB0001079a HRH1. To be noted: at 10 µM.
Sequence of Histamine H1 receptor (P35367 whole entry): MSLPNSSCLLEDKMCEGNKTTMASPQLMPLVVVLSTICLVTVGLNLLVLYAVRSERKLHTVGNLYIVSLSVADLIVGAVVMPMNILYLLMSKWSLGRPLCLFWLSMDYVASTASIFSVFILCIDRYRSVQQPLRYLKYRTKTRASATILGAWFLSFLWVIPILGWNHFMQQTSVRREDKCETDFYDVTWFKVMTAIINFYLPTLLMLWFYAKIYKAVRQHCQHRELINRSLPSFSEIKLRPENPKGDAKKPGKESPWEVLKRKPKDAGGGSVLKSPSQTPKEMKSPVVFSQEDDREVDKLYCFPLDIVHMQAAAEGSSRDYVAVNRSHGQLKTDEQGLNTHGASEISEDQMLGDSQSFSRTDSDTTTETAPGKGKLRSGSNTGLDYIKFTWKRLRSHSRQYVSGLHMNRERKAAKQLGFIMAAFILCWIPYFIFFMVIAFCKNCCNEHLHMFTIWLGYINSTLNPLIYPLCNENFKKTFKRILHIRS
The target in experiment [3] is STE20-like serine/threonine-protein kinase (Homo sapiens, UniProt Q9H2G2). The experiment is described as follows: Selectivity interaction (KinomeScan (DiscoverX)) EUB0001079a SLK. The following applies: at 1 µM.
Experiment [4] deals with T1, Bone morphogenetic protein receptor type-2 (Homo sapiens) (UniProt Q13873).
T1 sequence (whole entry): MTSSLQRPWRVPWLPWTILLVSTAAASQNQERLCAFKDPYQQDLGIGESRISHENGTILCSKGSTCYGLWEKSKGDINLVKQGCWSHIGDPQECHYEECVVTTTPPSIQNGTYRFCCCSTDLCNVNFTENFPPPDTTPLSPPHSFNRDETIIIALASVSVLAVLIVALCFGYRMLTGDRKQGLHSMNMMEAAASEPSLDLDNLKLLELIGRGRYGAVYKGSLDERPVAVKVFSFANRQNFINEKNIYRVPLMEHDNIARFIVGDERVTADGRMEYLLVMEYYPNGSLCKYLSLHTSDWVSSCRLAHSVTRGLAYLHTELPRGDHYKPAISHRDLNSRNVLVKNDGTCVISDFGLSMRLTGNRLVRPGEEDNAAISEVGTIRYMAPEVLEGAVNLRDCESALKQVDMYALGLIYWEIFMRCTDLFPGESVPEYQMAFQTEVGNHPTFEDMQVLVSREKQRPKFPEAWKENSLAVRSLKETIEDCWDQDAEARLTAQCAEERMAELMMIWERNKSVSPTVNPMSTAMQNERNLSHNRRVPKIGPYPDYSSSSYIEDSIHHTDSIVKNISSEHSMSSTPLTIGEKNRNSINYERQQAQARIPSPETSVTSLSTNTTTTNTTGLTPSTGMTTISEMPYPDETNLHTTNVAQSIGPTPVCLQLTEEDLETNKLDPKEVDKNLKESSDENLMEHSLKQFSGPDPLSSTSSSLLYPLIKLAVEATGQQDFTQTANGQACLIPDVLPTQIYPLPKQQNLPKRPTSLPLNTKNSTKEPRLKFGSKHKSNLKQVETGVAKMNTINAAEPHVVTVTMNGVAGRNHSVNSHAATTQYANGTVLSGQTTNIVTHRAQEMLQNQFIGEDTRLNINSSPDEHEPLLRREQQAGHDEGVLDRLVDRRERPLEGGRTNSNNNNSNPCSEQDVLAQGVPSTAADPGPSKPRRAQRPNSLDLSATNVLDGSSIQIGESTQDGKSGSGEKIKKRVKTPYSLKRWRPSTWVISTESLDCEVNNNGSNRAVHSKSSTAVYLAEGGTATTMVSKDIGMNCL
The experiment is described as follows: Selectivity interaction (KinomeScan (DiscoverX)) EUB0000092b BMPR2. The following applies: at 10 µM.

The target of experiment [5] is T2, Dual specificity mitogen-activated protein kinase kinase 6 (Homo sapiens) (UniProt P52564).
T2 sequence (whole entry): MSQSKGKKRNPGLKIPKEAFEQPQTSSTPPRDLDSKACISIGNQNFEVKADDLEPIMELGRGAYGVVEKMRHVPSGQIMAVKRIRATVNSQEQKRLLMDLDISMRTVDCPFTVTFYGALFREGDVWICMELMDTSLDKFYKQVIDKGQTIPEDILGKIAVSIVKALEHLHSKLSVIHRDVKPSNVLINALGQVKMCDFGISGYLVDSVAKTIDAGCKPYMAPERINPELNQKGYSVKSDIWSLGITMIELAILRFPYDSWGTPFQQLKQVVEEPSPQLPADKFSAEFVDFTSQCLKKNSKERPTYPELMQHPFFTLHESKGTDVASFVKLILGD
The experiment is described as follows: Selectivity interaction (KinomeScan (DiscoverX)) EUB0001049a MAP2K6. To be noted: at 1 µM.

The target in experiment [6] is Tyrosine-protein kinase Blk (Homo sapiens) (UniProt P51451). As to the kind of experiment: Selectivity interaction (KinomeScan (DiscoverX)) EUB0000655a BLK. To be noted: at 10 µM.
Experiment [7] addresses Serine/threonine-protein kinase Nek7 (Homo sapiens) (UniProt Q8TDX7). The experiment is described as follows: Selectivity interaction (KinomeScan (DiscoverX)) EUB0000655a NEK7. To be noted: at 10 µM.
Experiment [8] addresses Cannabinoid receptor 2 (Homo sapiens) (UniProt P34972). The experiment is described as follows: Selectivity interaction (Eurofins CEREP Diversity Profile (receptors and ion channels)) EUB0000279b CNR2. To be noted: at 10 µM.
Another experiment concerns the target D(3) dopamine receptor (Homo sapiens, UniProt P35462). The experiment is described as follows: Selectivity interaction (Eurofins CEREP Diversity Profile (receptors and ion channels)) EUB0000279b DRD3. To be noted: at 10 µM.
In experiment [9] the target is Protein arginine N-methyltransferase 3 (Homo sapiens, UniProt O60678). As to the kind of experiment: Selectivity interaction (Methyltransferase screen (radiometric assays, panel of 8 PRMTs, 21 protein lysine methyltransferases, 3 DNA methyltransferases, and one RNA methyltransferase)) EUB0000271b PRMT3.
Sequence of Protein arginine N-methyltransferase 3 (O60678 2-531 limits assumed): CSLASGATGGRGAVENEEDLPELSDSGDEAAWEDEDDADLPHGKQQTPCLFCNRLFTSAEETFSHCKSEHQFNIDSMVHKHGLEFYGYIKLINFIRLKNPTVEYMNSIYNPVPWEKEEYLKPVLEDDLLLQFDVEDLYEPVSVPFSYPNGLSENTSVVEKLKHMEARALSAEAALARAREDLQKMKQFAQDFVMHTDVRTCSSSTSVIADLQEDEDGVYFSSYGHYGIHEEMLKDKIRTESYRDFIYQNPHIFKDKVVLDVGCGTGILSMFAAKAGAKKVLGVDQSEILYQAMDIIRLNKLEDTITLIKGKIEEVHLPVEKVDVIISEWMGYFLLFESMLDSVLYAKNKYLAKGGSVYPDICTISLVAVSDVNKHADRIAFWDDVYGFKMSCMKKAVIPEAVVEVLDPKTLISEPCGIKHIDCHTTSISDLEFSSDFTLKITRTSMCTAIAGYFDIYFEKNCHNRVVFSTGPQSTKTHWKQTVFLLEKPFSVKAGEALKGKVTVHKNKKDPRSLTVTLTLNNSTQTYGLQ
The target of experiment [10] is Tyrosine-protein kinase JAK1 (Homo sapiens, UniProt P23458). As to the kind of experiment: Selectivity interaction (KinomeScan (DiscoverX)) EUB0000666a JAK1. To be noted: at 10 µM.
For experiment [11], the target named is Ribosomal protein S6 kinase beta-1 (Homo sapiens, UniProt P23443). As to the kind of experiment: Selectivity interaction (KinomeScan (DiscoverX)) EUB0000229b RPS6KB1. To be noted: at 10 µM.
Sequence of Ribosomal protein S6 kinase beta-1 (P23443 whole entry, looked up): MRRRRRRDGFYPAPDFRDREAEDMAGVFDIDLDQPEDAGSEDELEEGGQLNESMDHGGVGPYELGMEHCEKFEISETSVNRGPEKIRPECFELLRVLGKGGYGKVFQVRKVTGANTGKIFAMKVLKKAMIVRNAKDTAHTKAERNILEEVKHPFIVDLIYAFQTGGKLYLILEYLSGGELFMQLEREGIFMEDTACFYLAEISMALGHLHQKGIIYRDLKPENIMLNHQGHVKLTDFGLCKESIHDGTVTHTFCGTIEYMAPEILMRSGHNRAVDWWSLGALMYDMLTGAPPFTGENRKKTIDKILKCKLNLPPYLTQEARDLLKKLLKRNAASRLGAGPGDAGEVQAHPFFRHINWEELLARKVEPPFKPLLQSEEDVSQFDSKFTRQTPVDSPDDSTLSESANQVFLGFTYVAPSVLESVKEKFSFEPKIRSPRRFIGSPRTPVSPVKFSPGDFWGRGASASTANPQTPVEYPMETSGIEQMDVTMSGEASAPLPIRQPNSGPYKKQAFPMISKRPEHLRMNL
Experiment [12] concerns the target Transient receptor potential cation channel subfamily M member 6 (Homo sapiens) (UniProt Q9BX84). The experiment is described as follows: Selectivity interaction (KinomeScan (DiscoverX)) EUB0000229b TRPM6. To be noted: at 10 µM.
Experiment [13] addresses Glycogen synthase kinase-3 beta (Homo sapiens, UniProt P49841). As to the kind of experiment: Selectivity interaction (Kinase panel (33PanQinase(R) Activity Assay)) EUB0000877a GSK3B.
The target of experiment [14] is Transcription initiation factor TFIID subunit 1-like (Homo sapiens) (UniProt Q8IZX4). The experiment is described as follows: Selectivity interaction (Human bromodomain panel (DSF assay)) EUB0000233b TAF1L.
Experiment [15] addresses Cyclin-dependent kinase 2 (Homo sapiens, UniProt P24941). As to the kind of experiment: Selectivity interaction (Kinase panel (KiNativ target engagement assay in Jurkat cells)) EUB0001635a CDK2. It counts as cell-based. The following applies: at 1 µM.
Experiment [16] concerns the target Serine/threonine-protein kinase N2 (Homo sapiens, UniProt Q16513). The experiment is described as follows: Selectivity interaction (KinomeScan (DiscoverX)) EUB0000618a PKN2. To be noted: at 10 µM.

From ChEMBL document CHEMBL5465560, “Selectivity Literature for EUbOPEN Chemogenomic Library” (2024) come the findings set out here.

The structures appear in SMILES notation.

By IC50 is commonly meant the concentration that gives 50% inhibition. A higher IC50 goes with a need for much substance.

Sequence of Transient receptor potential cation channel subfamily M member 6 (Homo sapiens) (Q9BX84 whole entry): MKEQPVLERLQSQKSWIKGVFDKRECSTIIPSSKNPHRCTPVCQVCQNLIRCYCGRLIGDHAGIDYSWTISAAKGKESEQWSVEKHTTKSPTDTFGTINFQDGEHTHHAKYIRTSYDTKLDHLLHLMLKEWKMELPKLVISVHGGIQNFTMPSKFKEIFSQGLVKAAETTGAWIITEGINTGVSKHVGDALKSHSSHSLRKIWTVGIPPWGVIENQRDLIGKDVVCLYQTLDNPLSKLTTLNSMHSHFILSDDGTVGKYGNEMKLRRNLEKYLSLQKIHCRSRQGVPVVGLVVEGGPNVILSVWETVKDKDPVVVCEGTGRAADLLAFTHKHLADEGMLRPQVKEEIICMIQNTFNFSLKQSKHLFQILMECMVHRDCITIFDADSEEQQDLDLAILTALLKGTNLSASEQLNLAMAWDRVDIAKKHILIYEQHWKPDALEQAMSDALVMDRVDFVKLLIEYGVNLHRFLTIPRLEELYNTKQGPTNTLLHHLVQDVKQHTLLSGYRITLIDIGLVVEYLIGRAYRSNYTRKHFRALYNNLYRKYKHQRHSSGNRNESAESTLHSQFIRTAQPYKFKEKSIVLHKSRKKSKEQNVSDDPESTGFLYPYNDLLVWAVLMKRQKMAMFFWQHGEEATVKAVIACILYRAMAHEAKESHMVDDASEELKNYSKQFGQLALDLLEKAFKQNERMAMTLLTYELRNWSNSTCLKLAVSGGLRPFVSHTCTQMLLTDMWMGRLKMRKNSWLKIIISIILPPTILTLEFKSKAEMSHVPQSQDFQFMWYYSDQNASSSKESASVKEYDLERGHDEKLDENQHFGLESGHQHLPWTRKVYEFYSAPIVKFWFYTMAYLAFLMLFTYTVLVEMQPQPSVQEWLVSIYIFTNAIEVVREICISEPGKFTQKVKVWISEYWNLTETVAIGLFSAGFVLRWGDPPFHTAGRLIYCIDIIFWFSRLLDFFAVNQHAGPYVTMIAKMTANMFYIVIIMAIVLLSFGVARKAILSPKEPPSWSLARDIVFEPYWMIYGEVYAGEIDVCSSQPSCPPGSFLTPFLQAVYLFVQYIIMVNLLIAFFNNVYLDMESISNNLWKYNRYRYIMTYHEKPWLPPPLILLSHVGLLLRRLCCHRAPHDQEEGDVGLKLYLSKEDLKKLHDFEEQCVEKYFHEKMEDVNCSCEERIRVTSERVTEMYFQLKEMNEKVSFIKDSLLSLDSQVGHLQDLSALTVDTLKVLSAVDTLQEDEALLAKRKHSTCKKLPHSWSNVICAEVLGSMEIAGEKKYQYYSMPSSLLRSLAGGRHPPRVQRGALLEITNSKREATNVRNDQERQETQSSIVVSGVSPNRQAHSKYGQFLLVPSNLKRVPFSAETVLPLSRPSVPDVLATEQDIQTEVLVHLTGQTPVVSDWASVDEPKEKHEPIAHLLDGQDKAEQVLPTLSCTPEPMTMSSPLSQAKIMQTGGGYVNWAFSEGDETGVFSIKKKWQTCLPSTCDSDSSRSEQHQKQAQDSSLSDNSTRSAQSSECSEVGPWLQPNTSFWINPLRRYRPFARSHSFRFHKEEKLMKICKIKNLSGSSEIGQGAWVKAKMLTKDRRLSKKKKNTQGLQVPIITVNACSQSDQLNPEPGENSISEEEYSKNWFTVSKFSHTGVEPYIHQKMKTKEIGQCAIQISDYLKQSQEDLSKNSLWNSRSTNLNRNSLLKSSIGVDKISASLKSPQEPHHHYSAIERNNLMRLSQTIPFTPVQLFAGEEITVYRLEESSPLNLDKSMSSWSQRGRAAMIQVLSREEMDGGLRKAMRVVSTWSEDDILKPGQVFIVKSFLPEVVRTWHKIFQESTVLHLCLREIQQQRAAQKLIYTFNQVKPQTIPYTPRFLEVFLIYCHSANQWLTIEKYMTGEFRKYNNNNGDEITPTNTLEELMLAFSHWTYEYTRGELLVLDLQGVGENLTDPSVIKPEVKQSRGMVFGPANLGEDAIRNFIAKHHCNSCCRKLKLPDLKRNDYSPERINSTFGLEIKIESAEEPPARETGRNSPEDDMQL
Sequence of Serine/threonine-protein kinase MARK1 (Homo sapiens) (Q9P0L2 whole entry, looked up): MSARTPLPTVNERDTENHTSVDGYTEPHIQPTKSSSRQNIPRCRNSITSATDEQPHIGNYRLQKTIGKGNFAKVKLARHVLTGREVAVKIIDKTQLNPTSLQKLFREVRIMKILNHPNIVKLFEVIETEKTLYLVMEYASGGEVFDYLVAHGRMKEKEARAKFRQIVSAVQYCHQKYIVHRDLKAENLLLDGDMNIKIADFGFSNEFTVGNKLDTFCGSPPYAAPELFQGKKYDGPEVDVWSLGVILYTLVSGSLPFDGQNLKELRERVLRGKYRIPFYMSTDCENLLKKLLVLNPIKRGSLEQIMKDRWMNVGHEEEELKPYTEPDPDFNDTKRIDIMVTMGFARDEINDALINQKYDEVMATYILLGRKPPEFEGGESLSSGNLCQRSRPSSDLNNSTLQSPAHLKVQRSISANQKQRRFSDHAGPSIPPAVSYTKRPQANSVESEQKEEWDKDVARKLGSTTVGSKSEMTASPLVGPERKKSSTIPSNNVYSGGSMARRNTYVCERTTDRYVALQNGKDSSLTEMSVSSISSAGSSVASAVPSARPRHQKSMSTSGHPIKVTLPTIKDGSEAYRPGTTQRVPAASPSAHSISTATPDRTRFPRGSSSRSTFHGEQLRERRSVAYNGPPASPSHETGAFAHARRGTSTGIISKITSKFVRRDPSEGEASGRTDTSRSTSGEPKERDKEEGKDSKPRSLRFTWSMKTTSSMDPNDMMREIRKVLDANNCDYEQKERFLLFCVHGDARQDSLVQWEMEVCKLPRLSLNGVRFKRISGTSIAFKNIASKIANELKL
Sequence of Cannabinoid receptor 2 (Homo sapiens) (P34972 whole entry): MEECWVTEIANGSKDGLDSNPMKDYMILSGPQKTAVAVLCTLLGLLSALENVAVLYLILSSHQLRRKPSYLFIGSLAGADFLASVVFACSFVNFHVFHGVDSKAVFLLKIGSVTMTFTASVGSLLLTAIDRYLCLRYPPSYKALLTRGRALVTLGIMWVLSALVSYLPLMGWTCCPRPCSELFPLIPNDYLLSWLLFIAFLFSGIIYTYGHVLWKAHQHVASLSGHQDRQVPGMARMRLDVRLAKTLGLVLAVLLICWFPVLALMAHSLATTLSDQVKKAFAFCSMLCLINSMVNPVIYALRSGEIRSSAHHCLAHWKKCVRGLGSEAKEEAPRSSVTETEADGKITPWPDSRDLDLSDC
Sequence of Serine/threonine-protein kinase Nek7 (Homo sapiens) (Q8TDX7 whole entry, looked up): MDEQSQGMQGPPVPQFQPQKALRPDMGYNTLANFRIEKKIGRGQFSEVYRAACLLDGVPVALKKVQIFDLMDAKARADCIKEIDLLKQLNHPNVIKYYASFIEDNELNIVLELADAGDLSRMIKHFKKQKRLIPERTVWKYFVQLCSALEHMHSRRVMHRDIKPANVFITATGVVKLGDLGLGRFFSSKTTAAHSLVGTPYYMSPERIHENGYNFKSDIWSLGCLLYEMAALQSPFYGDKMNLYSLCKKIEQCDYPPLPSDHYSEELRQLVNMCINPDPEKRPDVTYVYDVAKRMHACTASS

`CN(C)C/C=C/C(=O)Nc1ccc(C(=O)N2CCCC(Nc3ncc(Cl)c(-c4c[nH]c5ccccc45)n3)C2)cc1` (stereo not given) returned a % of control in [1] of 100%.

For `CCN(CC)CCCCNc1ncc2cc(-c3cc(OC)cc(OC)c3)c(NC(=O)NC(C)(C)C)nc2n1`, the % of control in [2] amounted to 100%.

On to `Nc1cnc(N2CCc3cc(S(=O)(=O)Nc4c(F)cc(Cl)cc4F)cc(N4CCCC4=O)c32)nc1` [TP-020n], for which the % of inhibition at Histamine H1 receptor is -2.69%. The compound further returned a % of control in experiment [3] of 100%.

`CCC(=O)N1CCN(c2ccc(-n3c(=O)ccc4cnc5ccc(-c6cnc7ccccc7c6)cc5c43)cc2C(F)(F)F)CC1` showed a % of control in [4] of 85%.

`COc1cc(Nc2nc(C)cc(-c3cnn4nc(OC)ccc34)n2)cc(C(F)(F)F)c1` displayed a % of control in experiment [5] of 100%.

Turning to `CN(C)CCOc1ccc(-c2nc(-c3ccncc3)c(-c3ccc4c(c3)CC/C4=N\O)[nH]2)cc1`, the % of control was determined as 59% in [6] and 100% in [7].

Consider `CC(=O)c1cc(-c2ccccc2OCC2CC2)c2ncccn12`, for which the % of control is 107% in experiment [8] and 81% on D(3) dopamine receptor.

In the case of `Cc1cc(C)cc([C@@H]2c3cc(C)ccc3NC(=O)CN2C(=O)c2ccc(Br)s2)c1`, the % of activity in [9] (at 1 µM) amounted to 100%; in experiment [9] (at 10 µM), 98%.

For the compound `O=C(NOC[C@H](O)CO)c1ccc(F)c(F)c1Nc1ccc(I)cc1F`, the % of control in [10] came to 78%.

Take `COc1cc(N(C)c2ccnc3ccc(C(F)(F)F)cc23)cc(OC)c1OC`: the % binding in experiment [11] came out at 71%; in experiment [12], 100%.

For `CCC(=O)N1CC[C@H](Nc2ncnc3c2CN(c2cnc(OC)c(C(F)(F)F)c2)CC3)C1` [LENIOLISIB], the IC50 in [13] is > 10 µM.

`CN(C)CCCOc1ccc(-c2cc(NCCCn3cccn3)nc(S(C)(=O)=O)n2)cc1`: in experiment [14], the dTM is < 2 K.

As for `C=CC(=O)Nc1ccc(C(=O)Nc2[nH]nc3c2CN(C(=O)N[C@H](CN(C)C)c2ccccc2)C3(C)C)cc1`, the % of engagement was -25.3% in experiment [15] (Selectivity number of off-targets 0.0, Selectivity number of targets 233.0, Source Knowledge https://www.sciencedirect.com/science/article/pii/S2451945619300674?via%3Dihub) and -16.4% in experiment [15].

On to `O[C@H]1CC[C@H](Nc2ncc3nc(Nc4c(F)cc(F)cc4F)n([C@H]4CCOC4)c3n2)CC1`, for which, in experiment [16], the % of control was 97%.
